± gives the expanded uncertainty stated by the source.
Experiment: xn = mol fraction of the nth substance listed
Conditions: 100 kPa, Liquid; for mass density: Vibrating tube method; for viscosity: Capillary tube (Ostwald / Ubbelohde) method

SMILES: CC1CCC(=O)O1 (centres undefined) [γ-valerolactone] + CCCC[n+]1ccn(C)c1.O=S(=O)([N-]S(=O)(=O)C(F)(F)F)C(F)(F)F
- mass density (308.15 K, x2 = 0): 1039.87 ± 2 kg/m3
- mass density (308.15 K, x2 = 0.0505): 1094.09 ± 2.5 kg/m3
- mass density (308.15 K, x2 = 0.1001): 1138.71 ± 2.3 kg/m3
- mass density (308.15 K, x2 = 0.1492): 1176.8 ± 2.2 kg/m3
- mass density (308.15 K, x2 = 0.1998): 1208.52 ± 2.1 kg/m3
- mass density (308.15 K, x2 = 0.3008): 1259.2 ± 2.1 kg/m3
- mass density (308.15 K, x2 = 0.4031): 1302.39 ± 2.1 kg/m3
- mass density (308.15 K, x2 = 0.5048): 1332.11 ± 2 kg/m3
- mass density (308.15 K, x2 = 0.6031): 1358.2 ± 2 kg/m3
- mass density (308.15 K, x2 = 0.6973): 1378.98 ± 2 kg/m3
- mass density (308.15 K, x2 = 0.7994): 1398.34 ± 2 kg/m3
- mass density (308.15 K, x2 = 0.8711): 1411.63 ± 2 kg/m3
- viscosity (313.15 K, x2 = 0): 1.42 ± 0.06 mPa·s
- viscosity (313.15 K, x2 = 0.0505): 1.65 ± 0.07 mPa·s
- viscosity (313.15 K, x2 = 0.1001): 2 ± 0.08 mPa·s
- viscosity (313.15 K, x2 = 0.1492): 2.45 ± 0.1 mPa·s
- viscosity (313.15 K, x2 = 0.1998): 3.17 ± 0.13 mPa·s
- viscosity (313.15 K, x2 = 0.3008): 4.5 ± 0.18 mPa·s
- viscosity (313.15 K, x2 = 0.4031): 6.65 ± 0.27 mPa·s
- viscosity (313.15 K, x2 = 0.5048): 9.02 ± 0.37 mPa·s
- viscosity (313.15 K, x2 = 0.6031): 12.05 ± 0.49 mPa·s
- viscosity (313.15 K, x2 = 0.6973): 15.14 ± 0.62 mPa·s
- viscosity (313.15 K, x2 = 0.7994): 19.14 ± 0.78 mPa·s
- viscosity (313.15 K, x2 = 0.8711): 22.7 ± 0.92 mPa·s
- mass density (313.15 K, x2 = 0): 1035.16 ± 2 kg/m3
- mass density (313.15 K, x2 = 0.0505): 1089.31 ± 2.5 kg/m3
- mass density (313.15 K, x2 = 0.1001): 1133.87 ± 2.3 kg/m3
- mass density (313.15 K, x2 = 0.1492): 1171.93 ± 2.2 kg/m3
- mass density (313.15 K, x2 = 0.1998): 1203.61 ± 2.1 kg/m3
- mass density (313.15 K, x2 = 0.3008): 1254.26 ± 2.1 kg/m3
- mass density (313.15 K, x2 = 0.4031): 1297.42 ± 2.1 kg/m3
- mass density (313.15 K, x2 = 0.5048): 1327.12 ± 2 kg/m3
- mass density (313.15 K, x2 = 0.6031): 1353.2 ± 2 kg/m3
- mass density (313.15 K, x2 = 0.6973): 1373.98 ± 2 kg/m3
- mass density (313.15 K, x2 = 0.7994): 1393.33 ± 2 kg/m3
- mass density (313.15 K, x2 = 0.8711): 1406.62 ± 2 kg/m3
- viscosity (318.15 K, x2 = 0): 1.32 ± 0.05 mPa·s
- viscosity (318.15 K, x2 = 0.0505): 1.52 ± 0.06 mPa·s
- viscosity (318.15 K, x2 = 0.1001): 1.79 ± 0.07 mPa·s
- viscosity (318.15 K, x2 = 0.1492): 2.22 ± 0.09 mPa·s
- viscosity (318.15 K, x2 = 0.1998): 2.8 ± 0.12 mPa·s
- viscosity (318.15 K, x2 = 0.3008): 4.03 ± 0.17 mPa·s
- viscosity (318.15 K, x2 = 0.4031): 5.76 ± 0.24 mPa·s
- viscosity (318.15 K, x2 = 0.5048): 7.84 ± 0.32 mPa·s
- viscosity (318.15 K, x2 = 0.6031): 10.41 ± 0.42 mPa·s
- viscosity (318.15 K, x2 = 0.6973): 12.96 ± 0.53 mPa·s
- viscosity (318.15 K, x2 = 0.7994): 16.42 ± 0.67 mPa·s
- viscosity (318.15 K, x2 = 0.8711): 19.25 ± 0.78 mPa·s
- mass density (318.15 K, x2 = 0): 1030.45 ± 2 kg/m3
- mass density (318.15 K, x2 = 0.0505): 1084.53 ± 2.5 kg/m3
- mass density (318.15 K, x2 = 0.1001): 1129.05 ± 2.3 kg/m3
- mass density (318.15 K, x2 = 0.1492): 1167.06 ± 2.2 kg/m3
- mass density (318.15 K, x2 = 0.1998): 1198.73 ± 2.1 kg/m3
- mass density (318.15 K, x2 = 0.3008): 1249.35 ± 2.1 kg/m3
- mass density (318.15 K, x2 = 0.4031): 1292.49 ± 2.1 kg/m3
- mass density (318.15 K, x2 = 0.5048): 1322.17 ± 2 kg/m3
- mass density (318.15 K, x2 = 0.6031): 1348.24 ± 2 kg/m3
- mass density (318.15 K, x2 = 0.6973): 1369.02 ± 2 kg/m3
- mass density (318.15 K, x2 = 0.7994): 1388.35 ± 2 kg/m3
- mass density (318.15 K, x2 = 0.8711): 1401.62 ± 2 kg/m3
- viscosity (323.15 K, x2 = 0): 1.23 ± 0.05 mPa·s
- viscosity (323.15 K, x2 = 0.0505): 1.41 ± 0.06 mPa·s
- viscosity (323.15 K, x2 = 0.1001): 1.66 ± 0.07 mPa·s
- viscosity (323.15 K, x2 = 0.1492): 2.04 ± 0.08 mPa·s
- viscosity (323.15 K, x2 = 0.1998): 2.49 ± 0.1 mPa·s
- viscosity (323.15 K, x2 = 0.3008): 3.59 ± 0.15 mPa·s
- viscosity (323.15 K, x2 = 0.4031): 5.19 ± 0.21 mPa·s
- viscosity (323.15 K, x2 = 0.5048): 6.98 ± 0.28 mPa·s
- viscosity (323.15 K, x2 = 0.6031): 9.22 ± 0.38 mPa·s
- viscosity (323.15 K, x2 = 0.6973): 11.45 ± 0.47 mPa·s
- viscosity (323.15 K, x2 = 0.7994): 14.32 ± 0.58 mPa·s
- viscosity (323.15 K, x2 = 0.8711): 16.68 ± 0.68 mPa·s
- mass density (323.15 K, x2 = 0): 1025.74 ± 2 kg/m3
- mass density (323.15 K, x2 = 0.0505): 1079.76 ± 2.5 kg/m3
- mass density (323.15 K, x2 = 0.1001): 1124.22 ± 2.3 kg/m3
- mass density (323.15 K, x2 = 0.1492): 1162.18 ± 2.2 kg/m3
- mass density (323.15 K, x2 = 0.1998): 1193.83 ± 2.1 kg/m3
- mass density (323.15 K, x2 = 0.3008): 1244.4 ± 2.1 kg/m3
- mass density (323.15 K, x2 = 0.4031): 1287.51 ± 2.1 kg/m3
- mass density (323.15 K, x2 = 0.5048): 1317.18 ± 2 kg/m3
- mass density (323.15 K, x2 = 0.6031): 1343.25 ± 2 kg/m3
- mass density (323.15 K, x2 = 0.6973): 1364.02 ± 2 kg/m3
- mass density (323.15 K, x2 = 0.7994): 1383.35 ± 2 kg/m3
- mass density (323.15 K, x2 = 0.8711): 1396.6 ± 2 kg/m3

From the NIST ThermoML archive (doi:10.1016/j.jct.2016.12.032)
